From patent EP2924037A1, “QUINAZOLINE DERIVATE AND USE THEREOF AS APOPTOSIS INHIBITOR” (Linx Pharmaceutical Co., Ltd., priority 2012, dated 2013)

How the values were obtained:
[1] = test system: sepsis models (LPS; Cecal Ligation and Puncture); assay: Effects against sepsis (LPS and CLP models), 7-day survival; format: in vivo, BALB/C mice; details: i.p. once a day for 3 days at 0.4 mg/kg; 7-day period; P < 0.05 compared to negative controls
Experimental: After 1.5 hours, compounds were injected (i.p.) at a predetermined concentration. Mouse survival was examined every 12 hours for 7 days. Statistical significance of the difference in the survival rates was analyzed.
Another model is Cecal Ligation and Puncture (CLP) model of sepsis. Mice were anesthetized. A 1.5-2.0 cm long abdominal midline incision was made and the cecum was exposed. After ligation 5 mm from the cecal tip, the cecum was punctured once with a 22-gauge needle, and some stool was squeezed out. Then the cecum was put back into the abdomen and the abdomen was closed by running suture. After 1.5 hours, compounds were injected (i.p.) at a predetermined concentration. Mouse survival was examined every 12 hours for 7 days. Statistical significance of the difference in the survival rates was analyzed.
These compounds were individually injected (i.p.) once a day for 3 days at 0.4 mg/kg.

E. Coli O111:B4 = assay: Oxford Cup test of antibiotic activity; format: cell-based; details: after 24 hrs; terazosin 0.2µg, 2µg, 200µg, 2mg; ampicillin 2mg
Experimental: The antibiotic activity of terazosin was measured by Oxford Cup test. Oxford Cups containing different concentrations of terazosin were placed in the petri dish wherein E. Coli O111:B4 was cultured on LB medium. The effects of terazosin and ampicillin on the growth of E. Coli were examined after 24 hrs.

[2] = test system: active form of caspase-3 in Raw 264.7 cells; assay: Western blot of the active form of caspase-3 in cells treated with LPS and IFNγ; format: cell-based
Experimental: CLP was done one week after the injection.
For Western blot, an anti-active Caspase 3 antibody (#9664, Cell Signaling) was used. The anti-actin antibody was purchased from Wuhan Boster company, China.
(§1) RAW 264.7 cells were cultured in the DMEM medium (Gibco) supplemented with 5% FBS, streptomycin (0.1 mg/mL) and penicillin (0.06 mg/mL). To induce apoptosis, 2 µg/mL lipopolysaccharide (LPS; Escherichia coli O111:B4, Sigma-Aldrich) and IFN-γ (50 U/mL, Peprotech) were added, and a predetermined concentration of the testing compound was added at the same time. Cell death was assessed by Western blot with an anti-active Caspase 3 antibody (#9661, Cell Signaling). β-Actin (Boster) was used as internal control for protein loading. The ratio of Caspase 3/β-Actinwas was used to assess apoptosis.

[3] = Blood pressure of injected mice; format: in vivo; details: 0.08 mg/kg
Experimental: (§2) Because E. coli and LPS models can only simulate Gram-negative bacteria infections, terazosin was further tested in a cecal ligation and puncture (CLP) model, which is believed to be the classic standard model of experimental septicemia (Parker and Watkins, 2001; Wichterman et al., 1980). First, 0.4 mg/kg of terazosin (same concentration as used in the LPS model) was tested. […] This may be due to severe cardiac dysfunction and hypotension induced by CLP. Thus, the blood pressure lowering function of the drug may have masked its anti-apoptotic effect. […] In addition, the combination of terazosin and antibiotics was tested. Terazosin was combined with amoxicillin and clavulanate potassium (Co-Am, amoxicillin and clavulanate potassium in a weight ratio of 4: 1, by way of a specific example elsewhere or instance mentioned in the present invention, also means a 4 : 1 ratio. Skilled in the art can understand, when a combination of amoxicillin and clavulanate potassium is referred to, the weight ratio of amoxicillin and clavulanate potassium can be from 1:1 to 10:1, especially 1:1-7:1, for example, about 1:1, about 4:1, about 7:1).

[4] = Effect on serum glucose in mice; format: in vivo; details: Mus musculus, ip, 18 h, read-out: reduction of the serum glucose level
Experimental: Mice were injected terazosin (0.4 mg/kg i.p.) once. The serum glucose level of the mice was measured 18 hours later. […] By the same method, exemplary compounds Co.1, Co.3, Co.7, Co.9, Co.13, Co.16, Co.19, Co.24, Co.27 and Co.32 as described in the present invention were all shown to be effective to reduce the serum glucose level by 20% to 50%.

HS>rpr Drosophila = assay: Compound screen in the apoptotic HS>rpr Drosophila model; format: in vivo; details: heat shock at 37 °C; 25 compounds screened
Experimental: HS-Gal4 (a promoter that can be expressed in whole body and activated by heat), can promote expression of any genes having repeated UAS (upstream activating sequence) at the 5' region. The HS-Gal4 and UAS-Reaper Drosophila were crossed at 18 °C to produce hybrids referred to as HS> rpr, and the female offspring underwent normal development. However, with heat shock for 2-3 hours at 37 °C, about 50-70% of the offspring died after 14-24 h (Fig. 1). 25 compounds were selected (Fig. 2) to determine their impact on the lethal rate of HS> rpr.
UAS-rpr and HS-Gal4 flies were obtained from Bloomington Stock Center in the US. The F1 progenies (HS>rpr) from the cross of these two lines were raised at 18 °C for the compound screen. Compounds were dissolved in 5% sucrose at the concentrations used in the culture media for Cmap. The compound solution (150 µL) was added to a vial containing three layers of filter papers. Twenty adult HS>rpr flies aged 1-3 days were then placed into each vial for 24 hours. The flies were heat shocked at 37 °C for 2 hrs. The survival rate was calculated 12 hrs after the heat shock.

[5] = test system: RAW264.7 macrophage cells; assay: LPS and IFNγ induced apoptosis, Annexin V staining; format: cell-based; details: Mus musculus, LPS (2 µg/ml) and IFNγ (50 U/ml), read-out: reduction of apoptosis
Experimental: Cells were stained with Annexin V to examine apoptosis (Fig. 4). […] Terazosin (4 µg/ml) can reduced 50% of apoptosis (Fig. 4).
The RAW 264.7 cells were cultured in the DMEM medium (Gibco) supplemented with 10% FBS (Gibco), streptomycin (0.1 g/L) and penicillin (0.06 g/L) (Amresco). To induce apoptosis, RAW 264.7 cells at 90% confluence were incubated in DMEM (10% FBS) containing 2 µg/mL lipopolysaccharide (LPS; Escherichia coli O111:B4, Sigma) for 24 hours.
as §1

CLP model of sepsis = format: in vivo, BALB/C mice
Experimental: as §2
For the CLP model of sepsis, mice were anesthetized with chloral hydrate (300 mg/kg, i.p.). Then, a 1.5-2.0 cm long abdominal midline incision was made and the cecum was exposed. […]

[6] = test system: E. coli induced sepsis model; assay: E. coli induced sepsis model in mice; format: in vivo, BALB/C mice; details: 0.4 mg/kg, 1.5 hours following injection of E. coli
Experimental: Terazosin was tested in a model of septicemia caused by E. coli injected. […] To determine the potential antibacterial effect, the growth of E. coli was examined in the presence of terazosin.

Experimental for LPS-induced sepsis model: Male BALB/C mice (20±3g) from Vital River (Beijing, China) were housed in the Animal Center of Peking University. […] For the LPS model of sepsis, each mouse was injected with LPS (13.5 mg/kg, i.p.) once. […] Terazosin (0.4 mg/kg or 0.04 mg/kg) or saline was then injected (i.p.) 1.5 hours after LPS infusion. Lethality was recorded every 12 hours for 7 days.
24 hrs after LPS injection, one thymus from each mouse was collected. Then, the genomic DNA of thymus was extracted with a genomic DNA purification kit (Biofuture, Beijing, China). DNA fragmentation was assessed on a DNA agarose gel.

SMILES: COc1cc2nc(N3CCN(C(=O)C4CCCO4)CC3)nc(N)c2cc1OC (stereo not drawn) [Co.33, (4-(4-amino-6,7-dimethoxyquinazolin-2-yl)piperazin-1-yl)(tetrahydrofuran-2-yl)methanone]
- survival against sepsis [1]: significantly increased survival against sepsis
- growth of E. coli (inhibition zones) (E. Coli O111:B4): cannot inhibit the growth of E. coli
- active form of caspase-3 [2]: decreased
- blood pressure of the injected mice [3]: completely normal
- effect in later phases of septicemia (survival) (LPS-induced sepsis model; injected at 12 hours after LPS treatment (0.04 mg/kg per Fig. 6)): satisfactory results
- DNA ladders in genomic DNA of the thymus (LPS-induced sepsis model; mice treated with LPS and terazosin vs LPS, 24 hrs after LPS injection): significantly reduced
- inhibition in vivo at 0.4 mg/kg [4]: 30%
- survival rate of HS>rpr Drosophila (HS>rpr Drosophila): significantly improve the survival rate
- inhibition at 4 µg/mL [5]: 50%
- survival of mice in the CLP model (CLP model of sepsis; 0.08 mg/kg, injected at 1.5 hours and 24 hours after surgery): significantly promoted the survival of mice
- death of mice in the CLP model versus control (CLP model of sepsis; mouse, in vivo): died faster than the control group
- protection from E. coli-induced death [6]: can protect mice from E. coli-induced death
